Results: patent US20250135016A1, “MOLECULAR LOGIC GATES FOR CONTROLLED MATERIAL DEGRADATION” (University of Washington, priority 2016, published 2025)
“And” between values parts separate entries of the source, which are not always exact repeats. Equal entries are not always repeated. Where two headings read alike, the source gives them in different places. Blank lines part the entries; values can stand above or below the substance they belong to.

Experiments:
[1] = all eight input combinations of reductant, MMP enzyme and light; endpoint supernatant fluorescence
[2] = system: hS5 bone marrow-derived stromal cells; test: Hydrogel-encapsulated cell release studies; format: cell-based, human
Protocol: Four human bone marrow-derived stromal cell lines [hS5], including one non-fluorescent control and three each stably transfected to express a single fluorescent protein [mCherry, green fluorescent protein (GFP), or blue fluorescent protein (BFP)], were cultured at 37° C. in Roswell Park Memorial Institute medium 1640 (RPMI-1640, Corning) supplemented with 10% FBS and 1% PS.
Hydrogels were formed sandwiched between an azide-functional glass slide and a Rain-X®-treated glass slide separated by two 0.005″ thick silicone spacers (McMaster-Carr). A precursor solution containing PEG-tetraBCN (Method S22, 2 mM), the P crosslinker (Method S7, 4 mM), and hS5-GFP^+ (40×10^6 cells mL^−1) was injected between the silicone spacers and reacted for one hour. Subsequently, a precursor solution of PEG-tetraBCN (2 mM), the R∨P crosslinker (Method S10, 4 mM), and hS5-BFP^+ (40×10^6 cells mL^−1) was injected between the hS5-GFP^+ encapsulated region and a silicone spacer. […]
Following each degradative step, cells that remained encapsulated in the intact gel were imaged using fluorescent confocal microscopy. Three channels—one for each fluorescent protein—were simultaneously monitored. For visualization, fluorescence corresponding to mCherry (excitation 587 nm, emission 626-703 nm), GFP (excitation 489 nm, emission 499-570 nm), and BFP (excitation 405 nm, emission 413-494 nm) were false colored as red, green, and blue, respectively. […]
Gels were degraded and the viability of the released cells was assessed. […]
Cells released from the gels and stained with the Live/Dead® assay were imaged on a Nikon Eclipse TE2000-U microscope using filter cubes corresponding to both live (excitation 480/40 nm filter, emission 535/50 nm filter) and dead (excitation 560/20 nm filter, emission 630/60 nm filter) staining. Viability was determined for each treatment by standard image analysis. […]

[3] = Multi-logic hydrogel treatment and confocal microscopy; format: physicochemical; settings: three-region gel
Protocol: Hydrogels were formed sandwiched between an azide-functional glass slide and a Rain-X®-treated glass slide separated by two 0.005″ thick silicone spacers (McMaster-Carr). A precursor solution containing PEG-tetraBCN-FAM (Method S22, 2 mM) and the P crosslinker (Method S7, 4 mM) was injected between the silicone spacers (0.005 inches) and reacted for one hour. Subsequently, a precursor solution of PEG-tetraBCN-Cyanine5 (Method S22, 2 mM) and the R∨P crosslinker (Method S10, 4 mM) was injected between the FAM functionalized region and a silicone spacer and reacted for one hour. This was repeated on the other side of the FAM functionalized region with PEG-tetraBCN-AF568 (Method S22, 2 mM) and R∧P crosslinker (Method S13, 4 mM). Hydrogels were equilibrated and stored in PBS. […]
Hydrogels were imaged using fluorescent confocal microscopy. Three channels—one for each fluorophore—were simultaneously monitored. For visualization, fluorescence corresponding to AF568 (excitation 578 nm, emission 594-627 nm), FAM (excitation 515 nm, emission 520-569 nm), and Cyanine5 (excitation 646 nm, emission 663-675 nm) were false colored as red, green, and blue, respectively.

[4] = Protocol: Azide functionalized glass slides were synthesized as reported in previous works. […] PEG3500-diazide (37.5 μL, 40 mM) was then added, and the resulting solution was rapidly mixed, centrifuged, and then pipetted (25 μL) onto the azide functionalized glass slide. The gels were allowed to gel to completion for 1 hr, then covered with a RainX treated glass slide, and PBS (1×) was added to swell and rinse the gel overnight at room temperature, protected from light. The following morning, two of the gels (gel 3 and 4) was exposed to 365 nm light at 20 mW/cm^2 for 10 minutes with a hatched square (100 μm) chrome photomask. Following the light treatment, gel 3 was returned to PBS (1×) and protected from light. Gels 2 and 4 were placed in a solution of Dithiothreitol (DTT, 1 mM) for 4 hours. Gels 2 and 4 were then transferred to PBS (1×) and protected from light for 30 mins. Gel 1 remained in PBS and protected from light the entire time. The resulting fluorescence of these gels were imaged using a confocal scanning microscope at 488 nm.
[5] = In situ oscillatory rheology of hydrogel formation with pretreated E∧P crosslinker; format: physicochemical
Protocol: Reaction products were characterized using matrix-assisted laser desorption/ionization time-of-flight mass spectrometry (MALDI-TOF). […] To further investigate, the enzyme AND photo linker (E∧P) was pretreated with different combinations of enzyme and light, added to a stoichiometrically defined amount of PEG-tetraBCN, and characterized by in situ oscillatory rheology to monitor evolution of material properties.
Oscillatory rheology was performed on an Anton Paar MCR301 rheometer equipped with a cone and plate geometry (25 mm diameter, 1° cone) at 25° C. and 25 Hz with a 1% strain. A solution of PEG-tetraBCN (3 mM, Method S22) and the E∧P crosslinker (6 mM, Method S12) in MMP buffer was reacted in situ, while G′ and G″ were measured as a function of time over the course of two hours. Peptide crosslinkers were pretreated with MMP and/or light as described in Method S24 in experimental triplicate. Hydrogels with similar stiffnesses formed when the E∧P crosslinker was untreated (G′=1660±170), exposed to just light (G′=1580±130), or exposed to just enzyme (G′=1540±110).

Response to subsequent reducing treatment ([2]; cell-laden tri-color gel, BME 0.25 mM, 37° C., 45 minutes): fully intact | Response to masked UV light ([2]; cell-laden tri-color gel, λ=365 nm, 10 minute exposure, photomask): degradation | Response to subsequent reducing treatment ([3]; BME 0.25 mM, 45 minutes, after masked light): fully intact | Response to masked UV light ([3]; λ=365 nm, 10 minute exposure, slitted photomask): degradation
Substance: N3-oNB-RGGRK(N3)—NH2 [P]
Hydrogel degradation response [1]: degrading only when the programmed cue was present | Gel degradation for viability studies ([2]; R gels BME 0.25 mM 45 minutes, P gels UV 10 minutes, E gels MMP-8 0.20 nM 60 minutes): complete hydrogel degradation

Substance: FAM-GRCG-PL-GCGRK(CO(CH2)3N3)—NH2 [FAM-Photolabile-AND-Reducible Pendant]
Gel fluorescence (FAM release) ([4]; Gel 1, control, PBS only): no visible loss in fluorescence | Gel fluorescence (FAM release) ([4]; Gel 2, DTT only (1 mM, 4 hours)): no visible loss in fluorescence | Gel fluorescence (FAM release) ([4]; Gel 3, photomasked light only (365 nm, 20 mW/cm^2, 10 minutes)): no visible loss in fluorescence | Gel fluorescence (FAM release) ([4]; Gel 4, photomasked light and DTT): release in only the exposed areas

Final storage modulus G′ ([5]; E∧P linker pretreated with both enzyme and light, did not form a gel): 200±30 Pa | Final storage modulus G′ ([5]; E∧P linker pretreated with enzyme (MMP) only): 1580±130 Pa and 1540±110 Pa | Final storage modulus G′ ([5]; E∧P linker pretreated with light only): 1540±110 Pa and 1580±130 Pa | Final storage modulus G′ ([5]; E∧P linker untreated, reacted with PEG-tetraBCN): 1660±170 Pa | Final loss modulus G″ ([5]; all samples): ~50 Pa
Substance: HCC(CH2)2CO-RGK(CO(CH2)3N3)GPQGIWGQGK(oNB-N3)RK(CO(CH2)3N3)—NH2 [E∧P]
